Results published in US20230404914A1 (priority 2020, published 2023).

How the values were obtained:
[1] = Clinical study: pharmacokinetic model (NONMEM), Tmax, AUC, oral bioavailability
[2] = Clinical study: plasma concentrations after OTF administration; conditions: for plasma level following OTF compared to intravenous administration of 20 mg (S)-ketamine / Cmax: human; for plasma level following OTF compared to intravenous administration of 20 mg (S)-ketamine: in vivo; for Cmax: plasma, Cmax plasma concentration
[3] = Clinical study: safety, compatibility, adverse events
[4] = averaged; cited from earlier work
[5] = 50 mg (S)-Ketamine OTF, calculated using PK model
[6] = 100 mg (S)-Ketamine OTF, calculated using PK model
[7] = All data, 50 mg OTF based on formulation 15
[8] = All data, 2 × 50 mg OTF based on formulation 15
[9] = Buccally, 50 mg OTF based on formulation 15
[10] = Buccally, 2 × 50 mg OTF based on formulation 15
[11] = Sublingually, 50 mg OTF based on formulation 15
[12] = Sublingually, 2 × 50 mg OTF based on formulation 15
[13] = human, plasma, other: sublingual or buccal, 50 mg
[14] = human, plasma, other: sublingual or buccal, 100 mg

For N[C@]1(c2ccccc2Cl)CCC[C@H](O)C1=O [(S)-Hydroxynorketamine], which Tmax [1, 5] is on record?
The Tmax was 81 (69-92) min.

And the Tmax [1, 6]?
The Tmax was 109 (89-130) min.

And the Cmax plasma concentration [2, 7]?
The Cmax plasma concentration was 94 ng/mL.

And the Cmax plasma concentration [2, 8]?
The Cmax plasma concentration was 171 ng/mL.

What about the Cmax plasma concentration [2, 9] of the same compound?
The Cmax plasma concentration was 81 ng/mL.

And the Cmax plasma concentration [2, 10]?
Its Cmax plasma concentration is 165 ng/mL.

And the Cmax plasma concentration [2, 11]?
Its Cmax plasma concentration is 98 ng/mL.

And the Cmax plasma concentration [2, 12]?
The Cmax plasma concentration was 173 ng/mL.

And the “plasma level following OTF compared to intravenous administration of 20 mg (S)-ketamine” value [2]?
Its value is “higher following administration of an OTF”.

Which results are given for N[C@]1(c2ccccc2Cl)CCCCC1=O [(S)-Norketamine]?
Tmax [1, 5]: 61 (53-68) min; Tmax [1, 6]: 78 (66-91) min; Cmax plasma concentration [2, 7]: 254 ng/mL; Cmax plasma concentration [2, 8]: 330 ng/mL; Cmax plasma concentration [2, 9]: 242 ng/mL; Cmax plasma concentration [2, 10]: 450 ng/mL; Cmax plasma concentration [2, 11]: 258 ng/mL; Cmax plasma concentration [2, 12]: 323 ng/mL; plasma level following OTF compared to intravenous administration of 20 mg (S)-ketamine [2]: higher following administration of an OTF

What does the source list for CNC1(c2ccccc2Cl)CCCCC1=O (racemic) [(S)-ketamine, (S)-(±)-2-(2-chlorophenyl)-2-(methylamino)cyclohexan-1-one]?
Dizziness (prevalence of events) ([3]; 20 mg (S)-ketamine IV): 4; Drowsiness (prevalence of events) ([3]; 20 mg (S)-ketamine IV): 3; Dry eyes (prevalence of events) ([3]; 20 mg (S)-ketamine IV): 1; Headache (prevalence of events) ([3]; 20 mg (S)-ketamine IV): 3; High blood pressure (SBP >180 mm Hg) (prevalence of events) ([3]; 20 mg (S)-ketamine IV): 2; Nausea (prevalence of events) ([3]; 20 mg (S)-ketamine IV): 2; Sweating (prevalence of events) ([3]; 20 mg (S)-ketamine IV): 1; Total side effects (prevalence of events) ([3]; 20 mg (S)-ketamine IV): 17; Whistling noise in the ear (prevalence of events) ([3]; 20 mg (S)-ketamine IV): 1; Blurred vision (prevalence of events) ([3]; 50 mg (S)-ketamine OTF): 1; Bradykinesia (prevalence of events) ([3]; 50 mg (S)-ketamine OTF): 1; Dizziness (prevalence of events) ([3]; 50 mg (S)-ketamine OTF): 1; Feeling of drunkenness (prevalence of events) ([3]; 50 mg (S)-ketamine OTF): 2; Headache (prevalence of events) ([3]; 50 mg (S)-ketamine OTF): 1; Nausea (prevalence of events) ([3]; 50 mg (S)-ketamine OTF): 1; Total side effects (prevalence of events) ([3]; 50 mg (S)-ketamine OTF): 7; Bradykinesia (prevalence of events) ([3]; 100 mg (S)-ketamine OTF): 1; Dizziness (prevalence of events) ([3]; 100 mg (S)-ketamine OTF): 3; Headache (prevalence of events) ([3]; 100 mg (S)-ketamine OTF): 2; Nausea (prevalence of events) ([3]; 100 mg (S)-ketamine OTF): 1; Numbness of the tongue (prevalence of events) ([3]; 100 mg (S)-ketamine OTF): 2; Total side effects (prevalence of events) ([3]; 100 mg (S)-ketamine OTF): 9; adverse events in total ([3]; whole study, OTF and IV): 33; serious adverse events ([3]; whole study, OTF and IV): None of these was a serious adverse event; test subjects reporting at least one adverse event ([3]; whole study, OTF and IV): 18; AUC(0-t) [1, 13]: 139 ng·h/mL; Tmax [1, 13]: 18.8 min; AUC(0-t) [1, 14]: 222 ng·h/mL; Tmax [1, 14]: 19.1 min; lethal dose [4]: 4.2 g/70 kg; plasma level following OTF compared to intravenous administration of 20 mg (S)-ketamine [2]: higher for intravenous administration; Cmax ([2]; 50 mg, Buccally, 50 mg OTF based on formulation 15): 117 ng/mL; Cmax ([2]; 50 mg, Sublingually, 50 mg OTF based on formulation 15): 95 ng/mL; Cmax ([2]; 100 mg, Buccally, 2 × 50 mg OTF based on formulation 15): 158 ng/mL; Cmax ([2]; 100 mg, Sublingually, 2 × 50 mg OTF based on formulation 15): 138 ng/mL; Cmax ([2]; other: sublingual or buccal (all data), 50 mg, All data, 50 mg OTF based on formulation 15): 101 ng/mL; Cmax ([2]; other: sublingual or buccal (all data), 100 mg, All data, 2 × 50 mg OTF based on formulation 15): 143 ng/mL
